Measurements reported in patent publication US4954482A, “New glycopeptide antibiotic” (Pfizer Inc., priority 1986, dated 1990).

Test system: rumen fluid
Assay: In vitro rumen technique: propionic acid production
Assay type: cell-based, cow
Settings: 10 micrograms per milliliter; rumen fluid incubated at 39° C. about 16 hours
Procedure: The value of animal feeds has generally been determined directly by feeding the animal. British Patent Specification No. 1,197,826 details an in vitro rumen technique whereby the changes occurring in feeds brought about by microorganisms are measured more readily and with great accuracy in the evaluation of animal feeds. This technique involves the use of an apparatus in which the digestive processes of the animals are conducted and studied in vitro. The animal feeds, rumen inoculum and various growth promotants are introduced into and withdrawn from a laboratory unit under carefully controlled conditions and the changes taken place are studied critically and progressively during the consumption of the feed by the microorganisms. […] The change in propionic acid content is expressed as percent of the propionic acid content found in the control rumen fluid. Long term in vivo feeding studies are used to show a reliable correlation between propionic acid increase in the rumen fluid and improved animal performance. […]
After incubation, 5 ml. of the sample is mixed with 1 ml. of 25% metaphosphoric acid. […] Samples are then analyzed by gas-liquid chromatography by the mthod of D. W. Kellog, J. Dairy Science, 52, 1690, 1969. Peak heights for acetic, propionic and butyric acids are determined for samples from untreated and treated incubation flasks.

For CC[C@@H](C(=O)[C@@H](C)[C@@H](O)[C@H](C)[C@@H]1O[C@@H]([C@@H](CC)C(=O)O)CC[C@@H]1C)[C@H]1O[C@]2(C=C[C@@H](O)[C@]3(CC[C@@](C)([C@H]4CC[C@](O)(CC)[C@H](C)O4)O3)O2)[C@H](C)C[C@@H]1C [salinomycin], the “increase in the production of propionic acid over control” value was ~46%.
